The target in assay [1] is T1, Serine/threonine-protein kinase receptor R3 (Mus musculus, UniProt Q61288).
T1 sequence (Q61288 whole entry): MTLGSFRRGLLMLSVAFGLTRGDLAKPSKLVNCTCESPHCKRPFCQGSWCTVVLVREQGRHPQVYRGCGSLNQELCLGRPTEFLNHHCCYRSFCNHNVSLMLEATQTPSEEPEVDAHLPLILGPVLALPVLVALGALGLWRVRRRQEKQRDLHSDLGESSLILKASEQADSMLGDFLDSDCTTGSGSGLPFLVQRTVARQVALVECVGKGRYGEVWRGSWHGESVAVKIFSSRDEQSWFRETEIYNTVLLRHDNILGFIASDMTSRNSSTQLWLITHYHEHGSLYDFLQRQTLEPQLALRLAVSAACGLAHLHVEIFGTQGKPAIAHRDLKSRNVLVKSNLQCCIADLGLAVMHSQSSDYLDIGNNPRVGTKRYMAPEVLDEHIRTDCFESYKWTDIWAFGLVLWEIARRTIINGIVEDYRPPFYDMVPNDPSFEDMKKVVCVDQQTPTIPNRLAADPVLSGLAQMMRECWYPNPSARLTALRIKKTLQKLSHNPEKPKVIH

The target in assay [2] is T2, TGF-beta receptor type-1 (Mus musculus, UniProt Q64729).
T2 sequence (Q64729 whole entry): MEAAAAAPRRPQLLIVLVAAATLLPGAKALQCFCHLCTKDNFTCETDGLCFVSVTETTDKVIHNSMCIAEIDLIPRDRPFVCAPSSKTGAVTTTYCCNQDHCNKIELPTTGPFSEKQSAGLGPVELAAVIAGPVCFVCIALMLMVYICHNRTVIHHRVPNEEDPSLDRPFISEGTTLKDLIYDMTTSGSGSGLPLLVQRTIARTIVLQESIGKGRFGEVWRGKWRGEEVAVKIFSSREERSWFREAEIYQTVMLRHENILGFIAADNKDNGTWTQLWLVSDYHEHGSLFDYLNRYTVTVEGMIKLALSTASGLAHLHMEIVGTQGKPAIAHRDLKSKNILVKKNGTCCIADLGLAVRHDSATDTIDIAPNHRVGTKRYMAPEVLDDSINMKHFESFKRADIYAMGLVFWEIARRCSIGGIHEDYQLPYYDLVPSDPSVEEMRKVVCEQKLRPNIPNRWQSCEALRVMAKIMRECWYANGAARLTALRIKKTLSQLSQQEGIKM

The target of assay [3] is Bone morphogenetic protein receptor type-1A (Mus musculus, UniProt P36895).
Sequence of Bone morphogenetic protein receptor type-1A (P36895 whole entry): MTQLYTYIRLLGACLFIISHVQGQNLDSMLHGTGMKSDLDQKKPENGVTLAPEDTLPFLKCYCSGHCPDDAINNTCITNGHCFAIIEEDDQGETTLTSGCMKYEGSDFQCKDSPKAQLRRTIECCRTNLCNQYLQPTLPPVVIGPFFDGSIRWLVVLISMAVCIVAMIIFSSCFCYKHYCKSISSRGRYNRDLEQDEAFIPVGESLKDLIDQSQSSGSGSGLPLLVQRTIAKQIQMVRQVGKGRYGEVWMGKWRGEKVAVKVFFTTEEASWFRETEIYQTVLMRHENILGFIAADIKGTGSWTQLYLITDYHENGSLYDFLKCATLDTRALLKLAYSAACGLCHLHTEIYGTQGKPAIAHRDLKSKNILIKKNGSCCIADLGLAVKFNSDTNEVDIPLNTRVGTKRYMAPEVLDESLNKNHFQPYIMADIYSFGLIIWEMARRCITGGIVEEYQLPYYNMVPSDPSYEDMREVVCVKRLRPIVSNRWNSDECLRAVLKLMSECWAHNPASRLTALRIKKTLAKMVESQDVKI
Assay [4] addresses T3, Activin receptor type-1B (Mus musculus, UniProt Q61271).
T3 sequence (Q61271 whole entry): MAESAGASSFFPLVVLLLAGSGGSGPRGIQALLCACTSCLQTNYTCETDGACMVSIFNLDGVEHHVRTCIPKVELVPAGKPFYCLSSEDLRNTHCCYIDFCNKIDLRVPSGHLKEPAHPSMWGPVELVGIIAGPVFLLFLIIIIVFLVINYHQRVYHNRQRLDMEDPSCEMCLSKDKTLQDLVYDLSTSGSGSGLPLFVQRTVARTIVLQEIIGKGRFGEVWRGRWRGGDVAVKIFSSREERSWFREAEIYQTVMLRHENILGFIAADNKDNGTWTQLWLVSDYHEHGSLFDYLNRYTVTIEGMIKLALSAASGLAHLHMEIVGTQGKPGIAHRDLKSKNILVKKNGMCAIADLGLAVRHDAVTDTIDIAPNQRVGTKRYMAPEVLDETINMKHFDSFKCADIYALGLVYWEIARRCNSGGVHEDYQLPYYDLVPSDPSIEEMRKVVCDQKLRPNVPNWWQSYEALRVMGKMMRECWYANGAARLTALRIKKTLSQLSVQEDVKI

Assay [5] has as its target T4, Activin receptor type-1 (Mus musculus, UniProt P37172).
T4 sequence (P37172 whole entry): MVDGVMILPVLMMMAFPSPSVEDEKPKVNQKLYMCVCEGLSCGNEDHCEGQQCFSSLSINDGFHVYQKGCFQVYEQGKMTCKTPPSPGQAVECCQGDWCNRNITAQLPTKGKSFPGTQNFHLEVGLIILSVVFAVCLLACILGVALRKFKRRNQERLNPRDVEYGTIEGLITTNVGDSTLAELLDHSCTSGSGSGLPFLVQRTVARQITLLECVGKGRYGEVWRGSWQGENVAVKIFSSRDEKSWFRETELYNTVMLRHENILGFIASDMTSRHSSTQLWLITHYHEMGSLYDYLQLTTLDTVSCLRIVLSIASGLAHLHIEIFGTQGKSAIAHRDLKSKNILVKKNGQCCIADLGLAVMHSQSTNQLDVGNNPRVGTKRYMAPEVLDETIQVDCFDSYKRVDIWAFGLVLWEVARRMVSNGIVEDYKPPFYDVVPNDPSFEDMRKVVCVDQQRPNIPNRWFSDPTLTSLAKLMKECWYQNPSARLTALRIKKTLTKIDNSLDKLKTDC

From BindingDB's records for doi:10.1021/cb300655w (Massachusetts Institute of Technology, 2013) come the findings set out here.

A word on the IC50: it is the concentration needed to halve the response being measured. Higher therefore signals weaker potency in that assay.

For the compound `c1cc(-c2cnn3cc(-c4ccc(N5CCNCC5)cc4)cnc23)c2cccnc2c1` [LDN-212854], the IC50 in assay [1] is 2.4 nM; in assay [2], 9280 nM; in assay [3] it was 85.8 nM; in assay [4], 2130 nM.

Turning to `c1cc(-c2cnn3cc(-c4ccc(OCCN5CCCCC5)cc4)cnc23)ccn1`, the IC50 in assay [1] turned out to be 19.5 nM; in assay [2], 7830 nM; in assay [3], 222 nM; in assay [4] it was 3080 nM.

Take `c1ccc2c(-c3cnn4cc(-c5ccc(N6CCNCC6)cc5)cnc34)ccnc2c1` [LDN-193189]: the half-maximal inhibitory concentration (IC50) in assay [1] is 1.48 nM; in assay [2] it was 117 nM; in assay [3] it was 14.3 nM.

Turning to `CC(C)Oc1ccc(-c2cnc3c(-c4ccnc5ccccc45)cnn3c2)cc1` [4-(6-(4-isopropoxyphenyl)pyrazolo[1,5-a]pyrimidin-3-yl)quinoline], the IC50 in assay [5] was determined as 12.6 nM; in assay [1], 77.9 nM; in assay [2], 5970 nM; in assay [3], 241 nM; in assay [4] it was 11000 nM.

In the case of `COc1cc(-c2cc(-c3cccc(O)c3)cnc2N)cc(OC)c1OC` [K02288a], the values for the IC50 in assay [1] and in assay [3] were 3.65 nM and 25.8 nM, respectively.
